Source: US20150105252A1, “SUBSTITUTED PYRAZOLES AS HERBICIDES” (E I DU PONT DE NEMOURS AND COMPANY, priority 2013, published 2015)

How the values were obtained:
pigweed [1] = assay: Test C preemergence; assay type: in vivo, Amaranthus retroflexus
Summary of the method: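 Seeds were sown in a loam soil–sand blend and sprayed preemergence with compounds formulated in a non-phytotoxic solvent mixture containing surfactant. Postemergence plants, grown in peat/vermiculite medium to 2–18 cm (1- to 4-leaf stage), received the same formulation. After 13 to 15 days in a greenhouse, injury was rated visually against controls (0 = no effect, 100 = complete control).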

barnyardgrass = assay: Test C preemergence; assay type: in vivo, Echinochloa crus-galli
From the text: (§1) Seeds of plant species selected from blackgrass (Alopecurus myosuroides), ryegrass, Italian (Italian ryegrass, Lolium multiflorum), wheat (winter wheat, Triticum aestivum), galium (catchweed bedstraw, Galium aparine), corn (Zea mays), crabgrass, large (large crabgrass, Digitaria sanguinalis), foxtail, giant (giant foxtail, Setaria faberii), johnsongrass (Sorghum halepense), lambsquarters (Chenopodium album), morningglory (Ipomoea coccinea), nutsedge, yellow (yellow nutsedge, Cyperus esculentus), pigweed (redroot pigweed, Amaranthus retroflexus), ragweed (common ragweed, Ambrosia elation), soybean (Glycine max), barnyardgrass (Echinochloa crus-galli), oilseed rape (Brassica napus), waterhemp (common waterhemp, Amaranthus rudis), oat, wild (wild oat, Avena fatua), kochia (Kochia scoparia), Surinam grass (Brachiaria decumbens), foxtail, green (green foxtail, Setaria viridis), goosegrass (Eleusine indica), bromegrass, downy (downy bromegrass, Bromus tectorum), nightshade (eastern black nightshade, Solanum ptycanthum), cocklebur (common cocklebur, Xanthium strumarium), cupgrass, woolly (woolly cupgrass, Eriochloa villosa), bermudagrass (Cynodon dactylon), sunflower, (common oilseed sunflower, Helianthus annuus), Russian thistle (Salsola kali), and velvetleaf (Abutilon theophrasti) were planted into a blend of loam soil and sand and treated preemergence with test chemicals formulated in a non-phytotoxic solvent mixture which included a surfactant.
(§2) At the same time, plants selected from these crop and weed species and also chickweed (common chickweed, Stellaria media), canarygrass (littleseed canarygrass, Phalaris minor), and deadnettle (henbit deadnettle, Lamium amplexicaule), were planted in pots containing Redi-Earth® planting medium (Scotts Company, 14111 Scottslawn Road, Marysville, Ohio 43041) comprising spaghnum peat moss, vermiculite, wetting agent and starter nutrients and treated with postemergence applications of test chemicals formulated in the same manner. Plants ranged in height from 2 to 18 cm (1- to 4-leaf stage) for postemergence treatments. Treated plants and controls were maintained in a greenhouse for 13 to 15 days, after which time all species were compared to controls and visually evaluated. Plant response ratings, summarized in Table C, are based on a scale of 0 to 100 where 0 is no effect and 100 is complete control. A dash (-) response means no test result.

pigweed [2] = assay: Test C postemergence; assay type: in vivo, Amaranthus retroflexus; settings: for Plant response rating (scale of 0 to 100 where 0 is no effect and 100 is complete control), Pigweed: 31 g ai/ha, visually evaluated after 13 to 15 days; for Pigweed plant response rating / Plant response rating, Pigweed: postemergence; for Pigweed plant response rating: 62 g ai/ha, scale 0 to 100
From the text: as §1, §2

wheat = assay: Test A preemergence; assay type: in vivo, Triticum aestivum; settings: preemergence
Summary of the method: (§3)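 Growth medium: loam soil blended with sand. Preemergence treatment used a directed soil spray right after planting; postemergence treatment targeted seedlings at one to two leaves (2–10 cm height). Response was judged by eye relative to untreated plants about 10 days later on a 0–100 control scale.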

blackgrass = assay: Test C postemergence; assay type: in vivo, Alopecurus myosuroides; settings: for Plant response rating (scale of 0 to 100 where 0 is no effect and 100 is complete control), Blackgrass: 31 g ai/ha, visually evaluated after 13 to 15 days; for Blackgrass plant response rating / Plant response rating, Blackgrass: postemergence; for Blackgrass plant response rating: 62 g ai/ha, scale 0 to 100
From the text: as §1, §2

morningglory [3] = assay: Test A preemergence; assay type: in vivo, Ipomoea spp.
Summary of the method: as §3

ragweed = assay: Test C postemergence; assay type: in vivo, Ambrosia elation; settings: for Plant response rating (scale of 0 to 100 where 0 is no effect and 100 is complete control), Ragweed: 31 g ai/ha, visually evaluated after 13 to 15 days; for Ragweed plant response rating / Plant response rating, Ragweed: postemergence; for Ragweed plant response rating: 62 g ai/ha, scale 0 to 100
From the text: as §1, §2

johnsongrass = assay: Test C preemergence; assay type: in vivo, Sorghum halepense; settings: for Johnsongrass plant response rating: preemergence
From the text: as §1, §2

corn = assay: Test A preemergence; assay type: in vivo, Zea mays
Summary of the method: as §3

morningglory [4] = assay: Test C postemergence; assay type: in vivo, Ipomoea coccinea
From the text: as §1, §2

[5] = preemergence, 62 g ai/ha, scale 0 to 100 (0 no effect, 100 complete control), 13 to 15 days
[6] = preemergence, 125 g ai/ha, scale 0 to 100, 0 is no effect, 100 is complete control
[7] = preemergence, 31 g ai/ha, scale 0 to 100 (0 no effect, 100 complete control), 13 to 15 days
[8] = 250 g ai/ha, scale 0 to 100 (0 no effect, 100 complete control)
[9] = 125 g ai/ha, scale 0 to 100, 0 no effect, 100 complete control
[10] = 125 g ai/ha, visual injury, 0 to 100 scale, approx. 10 days
[11] = 500 g ai/ha, visual injury after approx. 10 days, 0 to 100 scale (0 no effect, 100 complete control)
[12] = preemergence, 125 g ai/ha, visual injury, 0 to 100 scale, approx. 10 days
[13] = preemergence, 500 g ai/ha, visual injury after approx. 10 days, 0 to 100 scale (0 no effect, 100 complete control)
[14] = 125 g ai/ha, scale 0 to 100, 0 is no effect, 100 is complete control
[15] = Preemergence, 16 g ai/ha, scale 0 to 100
[16] = preemergence, 62 g ai/ha, 13 to 15 days, scale 0 to 100, 0 = no effect, 100 = complete control
[17] = Preemergence, 500 g ai/ha, 0 to 100 scale, 0 no effect, 100 complete control

Structure (SMILES) | Pigweed plant response rating (pigweed [1]; [6]) | Barnyardgrass plant response rating (barnyardgrass; [7]) | Barnyardgrass plant response rating (barnyardgrass; [6]) | Plant response rating (scale of 0 to 100 where 0 is no effect and 100 is complete control), Pigweed (pigweed [2]; Postemergence) | Pigweed plant response rating (pigweed [2]) | Plant response rating, Pigweed (pigweed [2]; [9]) | Wheat plant response rating (wheat; [10]) | Wheat plant response rating (wheat; [11]) | Plant response rating (scale of 0 to 100 where 0 is no effect and 100 is complete control), Blackgrass (blackgrass; Postemergence) | Blackgrass plant response rating (blackgrass) | Plant response rating, Blackgrass (blackgrass; [9]) | Morningglory plant response rating (morningglory [3]; [12]) | Plant response rating (scale of 0 to 100 where 0 is no effect and 100 is complete control), Ragweed (ragweed; Postemergence) | Ragweed plant response rating (ragweed) | Plant response rating, Ragweed (ragweed; [9]) | Johnsongrass plant response rating (johnsongrass; [14]) | Corn plant response rating (corn; [12]) | other results
CCc1cc(-c2ccc(C(F)(F)F)cc2)nn1Cc1ccnc(C(F)(F)F)c1 [Compound 110] | 100 | 25 | 65 | 85 | 85 | 90 | 80 | 100 | 30 | 35 | 45 | 90 | 50 | 80 | 80 | 80 | 80 | Plant response rating (scale of 0 to 100), Pigweed (pigweed [1]; Preemergence, 250 g ai/ha): 100; Pigweed plant response rating (pigweed [1]; preemergence, 31 g ai/ha, visual rating, scale 0 to 100 (0 no effect, 100 complete control), 13 to 15 days): 95; Pigweed plant response rating (pigweed [1]; [5]): 100; Plant response rating (scale of 0 to 100), Barnyardgrass (barnyardgrass; Preemergence, 250 g ai/ha): 90; Barnyardgrass plant response rating (barnyardgrass; [5]): 30; Plant response rating, Pigweed (pigweed [2]; [8]): 98; Plant response rating, Blackgrass (blackgrass; [8]): 60; Morningglory plant response rating (morningglory [3]; [13]): 100; Plant response rating, Ragweed (ragweed; [8]): 80; Plant response rating (scale of 0 to 100), Johnsongrass (johnsongrass; Preemergence, 250 g ai/ha): 95; Johnsongrass plant response rating (johnsongrass; 31 g ai/ha, visual rating, scale 0 to 100 (0 no effect, 100 complete control), 13 to 15 days): 15; Johnsongrass plant response rating (johnsongrass; 62 g ai/ha, scale 0 to 100 (0 no effect, 100 complete control), 13 to 15 days): 30; Corn plant response rating (corn; [13]): 90
CCONC(=O)c1cc(CC)n(Cc2ccnc(C(F)(F)F)c2)n1 [Compound 77] | 100 | 20 | 100 | 50 | 55 | 60 | 20 | 40 | 5 | 5 | 5 | 20 | 5 | 10 | 10 | 70 | 10 | Plant response rating, Pigweed (pigweed [1]; [15]): 70; Pigweed plant response rating (pigweed [1]; [7]): 100; Plant response rating, Pigweed (pigweed [1]; [16]): 100; Plant response rating, Barnyardgrass (barnyardgrass; [15]): 10; Plant response rating, Barnyardgrass (barnyardgrass; [16]): 75; Plant response rating (scale of 0 to 100), Pigweed (pigweed [2]; Postemergence, 16 g ai/ha): 25; Plant response rating (scale of 0 to 100), Blackgrass (blackgrass; Postemergence, 16 g ai/ha): 0; Morningglory plant response rating (morningglory [3]; [17]): 50; Plant response rating (scale of 0 to 100), Ragweed (ragweed; Postemergence, 16 g ai/ha): 5; Plant response rating (scale of 0 to 100), Morningglory (morningglory [4]; Postemergence, 16 g ai/ha): 10; Morningglory plant response rating (morningglory [4]; postemergence, 62 g ai/ha, scale 0 to 100): 20; Plant response rating, Morningglory (morningglory [4]; postemergence, 125 g ai/ha, scale 0 to 100, 0 no effect, 100 complete control): 40; Plant response rating, Johnsongrass (johnsongrass; [15]): 10; Johnsongrass plant response rating (johnsongrass; 31 g ai/ha, scale 0 to 100 (0 no effect, 100 complete control), 13 to 15 days): 45; Corn plant response rating (corn; [17]): 30
